According to patent US20040121307A1, “Early detection of cellular differentiation using optophoresis” (Genoptix, Inc, priority 2002, published 2004):
In brackets after ≈: the same amount, converted by molar mass.

How the values were obtained:
Type in all cases: cell-based
U937 cells [1] = assay: Separation of drug treated and untreated leukemia cells, escape velocity; settings: PMA 5 ug/mL, 6 hours
Description: PMA was dissolved in ethanol at a concentration of 5 mg/mL. 3 mls of U937 cells grown in RPMI 1640 media with supplements were removed from the culture flask and 1 ml was placed into each of three eppendorf tubes. Cells from the first tube were pelleted for 4 minutes at 10,000 rpm and resuspended in 250 uL PBS/1% BSA buffer for escape velocity measurements. PMA was added to the remaining two tubes of U937 cells to a final concentration of 5 ug/mL. These tubes were vortexed and placed in a 37° C. water bath for either one hour or six hours. At the end of the time point, the tube was removed, cells were pelleted and then resuspended as described above and escape velocity measurements taken.

U937 cells [2] = assay: Experiment 1: time course dependence of PMA activation, escape velocity
Description: The objective of this experiment is to compare the escape velocities of U937 cells that have been treated with the phorbol ester, phorbol 12 myristate 13-acetate (PMA), to the escape velocity of untreated U937 cells. PMA activates the Protein Kinase C pathway and may cause the cells to go into rapid cell differentiation, which may be indicated by a shift in escape velocity. […] At the end of the activation period, the cells were centrifuged for 4 minutes at 10,000 rpm. The supernatant was then removed and the pellet resuspended in 1 ml PBS/1% BSA buffer. The cells were then centrifuged again and resuspended in buffer. The escape velocity and the cell size of cells from each tube were then calculated.
The time dependent effect of PMA was clearly present as can been seen in the shift of escape velocity to higher speeds over greater time periods.

U937 cells [3] = assay: Experiment 13: quantitative determination of PKC activation, escape velocity dose response; settings: for escape velocity, Average: five hours
Description: Optophoretic analysis was used to develop a full dose response curve for U937 cells treated with PMA. U937 cells were incubated with varying amounts of PMA dissolved in DMSO. The following concentrations of PMA were tested: 0.156 ng/ml, 0.312 ng/ml, 0.625 ng/ml, 1.25 ng/ml, 2.5 ng/ml, 5 ng/ml, and no PMA (control). The cells were incubated with the PMA solutions (or simply DMSO in the case of the control) for five hours. At the end of the incubation period, the cells were centrifuged down for five minutes at 5000 rpm. The supernatent was then removed and the pellet resuspended in 1 ml PBS/1% BSA buffer plus 1:10 trypan blue. The cells were then loaded onto a cover slip containing agarose that was spin-coated onto the surface thereof. Escape velocity measurements were then taken using a 100 mW laser having a beam diameter of 28 pixels. Table 9 reproduced below sets forth the measured escape velocities (μm/sec) for each of the various PMA concentrations.
The method described above may be used to quantitatively determine the level of PKC activation in cells in response to exposure to PKC activating compound using a moving optical gradient. The method includes the steps of first providing a series of cell samples and exposing the series of cell samples to different concentrations of the PKC activating compound. After a period of incubation from about one to several hours, the cells and the optical gradient are moved relative to each other so as to cause displacement of at least some of the cells. Next, the displacement of at least a portion of the displaced cells is measured for each of the different concentrations. […] From the dose response curve, one is able to calculate one or more numerical values that correlate to PKC potency and/or efficacy. For example, the dose response curve can be used to calculate the EC50, Hill slope, or plateau value relative to a standard compound.

CCCCCCCCCCCCCC(=O)O[C@@H]1[C@@H](C)[C@@]2(O)[C@@H](C=C(CO)C[C@]3(O)C(=O)C(C)=C[C@@H]23)[C@@H]2C(C)(C)[C@]12OC(C)=O [PMA, phorbol 12 myristate 13-acetate]
escape velocity as compared to the untreated cells (U937 cells [1]): significantly higher escape velocity | distribution of escape velocities (U937 cells [2]; 0.01 μg/ml PMA, 6 and 9 hours post treatment (FIG. 31)): clear trend toward higher escape velocities over time | escape velocity, Average (U937 cells [2]; 1 hour of PMA activation): 15.3 μm/sec | escape velocity, Average (U937 cells [2]; 6 hours of PMA activation): 28.0 μm/sec | escape velocity, Average (U937 cells [3]; 1.25 ng/ml PMA): 17.0 μm/sec | escape velocity, Average (U937 cells [3]; 2.5 ng/ml PMA): 17.0 μm/sec | escape velocity, Average (U937 cells [3]; 5 ng/ml PMA): 17.3 μm/sec | escape velocity, Average (U937 cells [3]; .156 ng/ml PMA): 15.8 μm/sec | escape velocity, Average (U937 cells [3]; .312 ng/ml PMA): 16.0 μm/sec | escape velocity, Average (U937 cells [3]; .625 ng/ml PMA): 16.6 μm/sec | EC50 (U937 cells [3]; Homo sapiens, U-937, 5 h, U937 cells, five hours (FIG. 53), read-out: EC50 value of the PMA dose response curve (escape velocity)): ~0.625 ng/mL (≈ 1.01 nM)
